Experimental data reported in BindingDB's records for doi:10.1021/jm0101803 (University of Illinois At Chicago, 2001).

Biological target: Beta-secretase 1 (Homo sapiens, UniProt P56817)
Assay: Enzyme Inhibition Measurements
Conditions: pH 4.5; 37 °C
Protocol: Enzyme activities were assayed by monitoring the hydrolysis of substrate in the presence or absence of inhibitor compounds. The hydrolysis was recorded as the increase in fluorescence intensity over a 10 min time period. […] The Ki was calculated by using Ki = IC50/ (1 + [S]/Km), and a Km value determined according to Michaelis-Menten.

Chain of Beta-secretase 1 (P56817 whole entry): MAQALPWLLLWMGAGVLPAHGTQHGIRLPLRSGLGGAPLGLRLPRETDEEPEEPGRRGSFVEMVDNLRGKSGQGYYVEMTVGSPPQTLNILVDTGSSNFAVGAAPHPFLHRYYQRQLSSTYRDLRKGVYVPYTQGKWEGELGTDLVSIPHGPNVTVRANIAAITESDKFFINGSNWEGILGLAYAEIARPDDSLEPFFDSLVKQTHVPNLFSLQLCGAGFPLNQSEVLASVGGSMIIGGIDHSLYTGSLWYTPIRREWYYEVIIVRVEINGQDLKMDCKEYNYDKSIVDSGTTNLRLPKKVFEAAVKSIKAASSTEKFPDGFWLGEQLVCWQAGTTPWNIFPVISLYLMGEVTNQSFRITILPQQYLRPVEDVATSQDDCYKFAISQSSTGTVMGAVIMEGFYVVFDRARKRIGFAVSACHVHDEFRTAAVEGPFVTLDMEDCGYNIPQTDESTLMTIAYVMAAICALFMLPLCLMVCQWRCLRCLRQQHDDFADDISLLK

**Q.** How did the Ki turn out when CC(C)C[C@H](NC(=O)[C@H](CC(N)=O)NC(=O)[C@@H](N)C(C)C)[C@@H](O)C[C@@H](C)C(=O)N[C@@H](C)C(=O)N[C@@H](CCC(=O)O)C(=O)N[C@@H](Cc1ccccc1)C(=O)O [Val-Asn-LeuAla-Ala-Glu-Phe] was run?
**A.** 0.036 µM
